The record followed here is patent publication US9856254B2, “Alkoxy substituted imidazoquinolines” (3M INNOVATIVE PROPERTIES COMPANY, priority 2003, dated 2018).

What is called melting point is the temperature, or range, at which the solid turns liquid.

The compound `CCOCc1nc2c(N)nc3cc(OCCCN4CCCC4=O)ccc3c2n1CCCCN1CCCS1(=O)=O` [Example 402, 1-(3-{[4-Amino-1-[4-(1,1-dioxidoisothiazolidin-2-yl)butyl]-2-(ethoxymethyl)-1H-imidazo[4,5-c]quinolin-7-yl]oxy}propyl)pyrrolidin-2-one] showed a melting point of 142 to 144 °C. With `CCCCc1nc2c(N)nc3ccc(OCC(=O)N4CCCCC4)cc3c2n1C` [Example 33, 2-Butyl-1-methyl-8-(2-oxo-2-piperidin-1-ylethoxy)-1H-imidazo[4,5-c]quinolin-4-amine] the figure was 222.5 to 223.4 °C. Next, `CCCn1c(COCC)nc2c(N)nc3ccc(OCC(=O)N4CCN(C(=O)OC(C)(C)C)CC4)cc3c21` [Example 404, tert-Butyl 4-({[4-amino-2-(ethoxymethyl)-1-propyl-1H-imidazo[4,5-c]quinolin-8-yl]oxy}acetyl)piperazine-1-carboxylate]: 192 to 197 °C (dec.); `CCCn1c(COC)nc2c(N)nc3ccc(OCCCN4CCN(c5ccccn5)CC4)cc3c21` [Example 657, 2-(Methoxymethyl)-1-propyl-8-[3-(4-pyridin-2-ylpiperazin-1-yl)propoxy]-1H-imidazo[4,5-c]quinolin-4-amine]: 196 to 197 °C; `CCCn1c(COCC)nc2c(N)nc3ccc(OCCCCCCNS(C)(=O)=O)cc3c21` [Example 409, N-(6-{[4-Amino-2-(ethoxymethyl)-1-propyl-1H-imidazo[4,5-c]quinolin-8-yl]oxy}hexyl)methanesulfonamide]: 164 to 167 °C. Next, `CCc1nc2c(N)nc3cc(OCC(=O)N4CCOCC4)ccc3c2n1CCOc1ccccc1` [Example 53, 2-Ethyl-7-(2-morpholin-4-yl-2-oxoethoxy)-1-(2-phenoxyethyl)-1H-imidazo[4,5-c]quinolin-4-amine]: 208 to 209 °C; `CCCCc1nc2c(N)nc3ccc(OCCC4CCN(S(C)(=O)=O)CC4)cc3c2n1C` [Example 41, 2-Butyl-8-{2-[1-(methanesulfonyl)piperidin-4-yl]ethoxy}-1-methyl-1H-imidazo[4,5-c]quinolin-4-amine]: 198 to 199.5 °C. Compound `CCCn1c(COCC)nc2c(N)nc3ccc(OCCCCCCNC(=O)C(C)C)cc3c21` [Example 407, N-(6-{[4-Amino-2-(ethoxymethyl)-1-propyl-1H-imidazo[4,5-c]quinolin-8-yl]oxy}hexyl)-2-methylpropanamide] yielded a melting point of 136 to 138 °C. With `CCCn1c(COCC)nc2c(N)nc3ccc(OC4CCNCC4)cc3c21` [Example 411, 2-(Ethoxymethyl)-8-(piperidin-4-yloxy)-1-propyl-1H-imidazo[4,5-c]quinolin-4-amine] the figure was 176 to 178 °C; with `CCCn1c(COCC)nc2c(N)nc3ccc(OC4CCOC4)cc3c21` (stereo not drawn) [Example 406, 2-(Ethoxymethyl)-1-propyl-8-(tetrahydrofuran-3-yloxy)-1H-imidazo[4,5-c]quinolin-4-amine], 173 to 175 °C.

In the case of `CCCc1nc2c(N)nc3cc(OCCCNC(=O)c4cccnc4)ccc3c2n1CC(C)C` [Example 16, N-{3-[4-Amino-1-(2-methylpropyl)-2-propyl-1H-imidazo[4,5-c]quinolin-7-yloxy]propyl}nicotinamide], the melting point is 172 to 174 °C.

The compound `CCc1nc2c(N)nc3cc(OCC(=O)N4CCOCC4)ccc3c2n1CC(C)C` [Example 30, 2-Ethyl-1-(2-methylpropyl)-7-(2-morpholin-4-yl-2-oxoethoxy)-1H-imidazo[4,5-c]quinolin-4-amine] registered a melting point of 219 to 220 °C. Next, `CCOCc1nc2c(N)nc3cc(OCCCCCCNS(C)(=O)=O)ccc3c2n1CC(C)(C)NS(C)(=O)=O` [Example 45, N-(2-{4-Amino-2-ethoxymethyl-7-[6-(methanesulfonylamino)hexyloxy]-1H-imidazo[4,5-c]quinolin-1-yl}-1,1-dimethylethyl)methanesulfonamide]: 176 to 180 °C; `CCOCc1nc2c(N)nc3cc(OCCCCCCNC(=S)NC(C)C)ccc3c2n1CC(C)(C)NC(C)=O` [Example 368, N-(2-{4-Amino-2-(ethoxymethyl)-7-[(6-{[(isopropylamino)carbonothioyl]amino}hexyl)oxy]-1H-imidazo[4,5-c]quinolin-1-yl}-1,1-dimethylethyl)acetamide]: 110 to 120 °C. Next, `CCCn1c(CCOC)nc2c(N)nc3cc(OC4CCOC4)ccc3c21` (stereo not drawn) [Example 56, 2-(2-Methoxyethyl)-1-propyl-7-(tetrahydrofuran-3-yloxy)-1H-imidazo[4,5-c]quinolin-4-amine]: 192 to 194 °C. For `CCCc1nc2c(N)nc3cc(OCCCNC(=O)N4CCOCC4)ccc3c2n1CC(C)C` [Example 20, N-(3-{[4-Amino-2-propyl-1-(2-methylpropyl)-1H-imidazo[4,5-c]quinolin-7-yl]oxy}propyl)morpholine-4-carboxamide], the melting point came out at 145 °C. With `CCOCc1nc2c(N)nc3cc(OCCCCCCNC(C)=O)ccc3c2n1CC(C)(C)NC(C)=O` [Example 50, N-(2-{7-[6-(Acetylamino)hexyloxy]-4-amino-2-ethoxymethyl-1H-imidazo[4,5-c]quinolin-1-yl}-1,1-dimethylethyl)acetamide] the figure was 190 to 192 °C; with `CCCn1c(CCOC)nc2c(N)nc3cc(OC4CCN(C(=O)OC(C)(C)C)CC4)ccc3c21` [Example 387, tert-Butyl 4-{[4-amino-2-(2-methoxyethyl)-1-propyl-1H-imidazo[4,5-c]quinolin-7-yl]oxy}piperidine-1-carboxylate], 173 to 175 °C. Next, `Cc1nc2c(N)nc3cc(OCCNC(=O)N4CCOCC4)ccc3c2n1CC(C)C` [Example 19, N-(2-{[4-Amino-2-methyl-1-(2-methylpropyl)-1H-imidazo[4,5-c]quinolin-7-yl]oxy}ethyl)morpholine-4-carboxamide]: 215 to 219 °C (dec.). Next, `CCCn1c(CCOC)nc2c(N)nc3cc(OCCCS(C)(=O)=O)ccc3c21` [Example 392, 2-(2-Methoxyethyl)-7-[3-(methylsulfonyl)propoxy]-1-propyl-1H-imidazo[4,5-c]quinolin-4-amine]: 170 to 171 °C; `CCOCc1nc2c(N)nc3cc(OCCNC(=O)OC(C)(C)C)ccc3c2n1CC1COC(C)(C)O1` (stereo not drawn) [Example 372, tert-Butyl 2-{[4-amino-1-[(2,2-dimethyl-1,3-dioxolan-4-yl)methyl]-2-(ethoxymethyl)-1H-imidazo[4,5-c]quinolin-7-yl]oxy}ethylcarbamate]: 82 to 84 °C; `CCCCc1nc2c(N)nc3ccc(OCCC4CCN(C(=O)N5CCOCC5)CC4)cc3c2n1C` [Example 42, 2-Butyl-1-methyl-8-{2-[1-(morpholin-4-ylcarbonyl)piperidin-4-yl]ethoxy}-1H-imidazo[4,5-c]quinolin-4-amine]: 152.8 °C (dec.).

In turn, `CCCn1c(COCC)nc2c(N)nc3cc(OC4CCNCC4)ccc3c21` [Example 416, 2-(Ethoxymethyl)-7-(piperidin-4-yloxy)-1-propyl-1H-imidazo[4,5-c]quinolin-4-amine] returned a melting point of 202 to 204 °C. For the compound `CCCn1c(COCC)nc2c(N)nc3ccc(OCC4CCCO4)cc3c21` (stereo not drawn) [Example 569, 2-(Ethoxymethyl)-1-propyl-8-(tetrahydrofuran-2-ylmethoxy)-1H-imidazo[4,5-c]quinolin-4-amine], the melting point lay within 178 to 179 °C. With `CCCn1c(COCC)nc2c(N)nc3ccc(OCCN4CCCCCC4)cc3c21` [Example 571, 8-(2-Azepan-1-ylethoxy)-2-(ethoxymethyl)-1-propyl-1H-imidazo[4,5-c]quinolin-4-amine] the figure was 146 to 148 °C; with `CCCn1c(CCOC)nc2c(N)nc3cc(OCCCNC(=O)OC(C)(C)C)ccc3c21` [Example 393, tert-Butyl 3-{[4-amino-2-(2-methoxyethyl)-1-propyl-1H-imidazo[4,5-c]quinolin-7-yl]oxy}propylcarbamate], 133.5 to 135 °C.

In turn, `CCCc1nc2c(N)nc3cc(OCCC4CCN(C(=O)OC(C)(C)C)CC4)ccc3c2n1CC(C)C` [Example 22, tert-Butyl 4-(2-{[4-amino-1-(2-methylpropyl)-2-propyl-1H-imidazo[4,5-c]quinolin-7-yl]oxy}ethyl)piperidine-1-carboxylate] returned a melting point of 196.4 to 199.6 °C.

On to `CCCc1nc2c(N)nc3cc(OCCCNC(=O)NS(=O)(=O)c4ccc(F)cc4)ccc3c2n1CC(C)C` [Example 21, N-{[(3-{[4-Amino-1-(2-methylpropyl)-2-propyl-1H-imidazo[4,5-c]quinolin-7-yl]oxy}propyl)amino]carbonyl}-4-fluorobenzenesulfonamide], for which the melting point was 194 to 198 °C. Next, `CCCn1c(COCC)nc2c(N)nc3cc(OC4CCN(S(C)(=O)=O)CC4)ccc3c21` [Example 561, 2-(Ethoxymethyl)-7-{[1-(methylsulfonyl)piperidin-4-yl]oxy}-1-propyl-1H-imidazo[4,5-c]quinolin-4-amine]: 215 to 217 °C; `CCCc1nc2c(N)nc3cc(OCCCNS(=O)(=O)CCc4cccc5ccccc45)ccc3c2n1CC(C)C` [Example 14, N-(3-{[4-Amino-1-(2-methylpropyl)-2-propyl-1H-imidazo[4,5-c]quinolin-7-yl]oxy}propyl)-2-(1-naphthyl)ethanesulfonamide]: 164 to 168 °C; `Cc1nc2c(N)nc3cc(OCCNC(=O)OC(C)(C)C)ccc3c2n1CC(C)C` [Example 9, tert-Butyl 2-{[4-amino-2-methyl-1-(2-methylpropyl)-1H-imidazo[4,5-c]quinolin-7-yl]oxy}ethylcarbamate]: 226.9 to 228.2 °C. With `CCCn1c(COC)nc2c(N)nc3ccc(OCC(=O)N4CCSCC4)cc3c21` [Example 556, 2-(Methoxymethyl)-8-(2-oxo-2-thiomorpholin-4-ylethoxy)-1-propyl-1H-imidazo[4,5-c]quinolin-4-amine] the figure was 214 to 216 °C; with `CCCn1c(COCC)nc2c(N)nc3ccc(OC4CCN(C(=O)NC(C)C)CC4)cc3c21` [Example 412, 4-{[4-Amino-2-(ethoxymethyl)-1-propyl-1H-imidazo[4,5-c]quinolin-8-yl]oxy}-N-isopropylpiperidine-1-carboxamide], 236.5 to 239 °C.
